As a reminder, the IC50 is the point on the concentration scale where inhibition reaches its midpoint.

The target of assay [1] is Gastrin/cholecystokinin type B receptor (Cavia porcellus). Put plainly: Inhibition of [125I]-labeled CCK-8 sulfate binding to Cholecystokinin type B receptor in guinea pig brain membranes.
For assay [2] the target is unchanged. The assay is described as above. This is another data set of the same source.

Regarding `CCc1cccc(-n2c(CCc3c[nH]c4ccc(Br)cc34)nc3ccccc3c2=O)c1`, the IC50 in assay [1] and in assay [2] was 0.33 µM throughout.
